Results taken from PMC5306082, “Physiologically based kinetic modeling of the bioactivation of myristicin” (Archives of Toxicology, 2016).

Experiments:
Assay type in all cases: in vitro ADME
[1] = Sulfonation of 1′-hydroxymyristicin, human liver S9; conditions: S9 protein yield 143 mg/g liver
Experimental: The formation of 1′-sulfoxymyristicin was determined using incubations containing male rat liver Sprague–Dawley or pooled gender human liver S9 proteins, PAPS as a cofactor, and GSH, which acts as a scavenger of the reactive carbocation formed due to the unstable nature of the 1′-sulfoxy metabolite in an aqueous environment (van den Berg et al. [2012]; Martati et al. [2011]; Al-Subeihi et al. [2011]). Incubation mixtures containing (final concentrations) 10 mM of GSH, 0.2 mM of PAPS, and 3 mg/ml of S9 proteins in 0.1 M potassium phosphate (pH 8.2) were pre-incubated for 1 min at 37 °C. After the pre-incubation, 1′-hydroxymyristicin dissolved in DMSO was added in final concentrations ranging between 10 and 6000 μM while keeping the final content of DMSO at 1 % (v/v). The reaction was terminated after 360 min of incubation by adding 25 μl (0.25 times the incubation volume) of ice-cold ACN. The formation of the GSH conjugate of 1′-sulfoxymyristicin was linear with time and S9 protein concentrations under the experimental conditions used. Blank incubations were performed in the absence of PAPS. Incubations were performed in triplicate. All samples were centrifuged for 5 min at 16,000×g, and the supernatant was stored at −20 °C until ultra-performance liquid chromatography (UPLC) analysis.
Quantification of 1′-sulfoxymyristicin was done using UPLC analysis as described for the estimation of 1′-sulfoxysafrole (Martati et al. [2011]). […] The gradient for analysis of the metabolite consisted of a mixture of ACN and ultrapure water containing 0.1 % (v/v) TFA. The flow rate was 0.6 ml/min, starting at 0 % ACN and increasing the percentage of ACN to 20 % over 0.2 min, followed by an increase to 30 % ACN over 4.3 min, then increasing to 100 % over 0.3 min, and keeping it at 100 % for 0.2 min, and finally decreasing to 0 % over 0.2 min and keeping it at 0 % for 0.8 min. Separation and purification of the GSH adduct of 1′-sulfoxymyristicin was performed by collecting the peak of the metabolite from the UPLC column. […]

[2] = Glucuronidation of 1′-hydroxymyristicin, male rat liver S9
Experimental: (§1) The kinetic constants for the metabolic conversion of 1′-hydroxymyristicin to 1′-hydroxymyristicin glucuronide (HMG) by both male rat and human liver fractions were determined as described previously for the related 1′-hydroxyalkenylbenzenes (Punt et al. [2008]; van den Berg et al. [2012]; Punt et al. [2009]; Martati et al. [2011], [2012]; Al-Subeihi et al. [2011], [2012]). Briefly, incubations contained (final concentrations) 10 mM of UDPGA and 0.5 mg/ml of male Sprague–Dawley or pooled gender human S9 protein in 0.2 M Tris–HCl (pH 7.4) containing 10 mM of MgCl2. To overcome enzyme latency and to obtain maximal glucuronidation activity, incubations containing S9 were pretreated on ice with 0.025 mg/ml alamethicin added from a 200 times concentrated stock dissolved in methanol (Fisher et al. [2000]; Lin and Wong [2002]). After 15 min of alamethicin treatment, samples were pre-incubated at 37 °C for 1 min, and reactions were subsequently started by adding 1′-hydroxymyristicin at final concentrations of 10 to 1200 μM. 1′-Hydroxymyristicin was added from 100 times concentrated stock solutions in DMSO. The reaction mixtures were incubated for 30 and 180 min for rat and human, respectively, and terminated by adding 25 µl (0.25 times the incubation volume) of ice-cold ACN. Blank incubations were carried out in the absence of the cofactor UDPGA. Experiments were performed in triplicate. The longer incubation time in human samples was required due to the lower rate of glucuronidation. The formation of 1′-hydroxymyristicin glucuronide was linear with time and the S9 protein concentration under the experimental conditions described. All samples were centrifuged for 5 min at 16,000×g, and the supernatant was stored at −20 °C until ultra-performance liquid chromatography (UPLC) analysis.
(§2) 1′-Hydroxymyristicin glucuronide was estimated based on the comparison of the peak area of the formed metabolite to the calibration curve of 1′-hydroxymyristicin at a wavelength of 210 nm. The flow rate was 0.6 ml/min. The gradient was made using a mixture of ACN and ultrapure water containing 0.1 % (v/v) TFA.

[3] = Glucuronidation of 1′-hydroxymyristicin, human liver S9; conditions: both sexes, human, pH 7.4; 1′-hydroxymyristicin to its glucuronide; S9, UDPGA; read-out: Km
Experimental: as §1, §2

C=CC(O)c1cc(OC)c2c(c1)OCO2 (stereo not shown) [1′-Hydroxymyristicin, 1′-hydroxymyristicin]
k Scaled [1]: 0.14 ml/hr/g tissue | Km at 30 min ([2]; male, Sprague-Dawley, rat, pH 7.4, 1′-hydroxymyristicin to its glucuronide, S9, UDPGA, read-out: Km): 836 µM | catalytic efficiency of glucuronidation, fold higher in male rats than in human ([2]; rat vs human): 400 fold | Km at 180 min [3]: 3140 µM
